The record followed here is US9738604B2, “Ethynylbenzene derivatives” (Duke University, priority 2010, dated 2017).

Molecules are shown by their SMILES. In brackets after ≈: the same amount, converted by molar mass. Where only a bound is given, the exact number is not on record here.

Assay type in all cases: cell-based
One assay relates to P. aeruginosa (PAO1). The assay is described as follows: MIC, P. aeruginosa. As to conditions: Pseudomonas aeruginosa, PAO1, 22 h, read-out: MIC P. aeruginosa (PAO1).
The next assay concerns E. coli W3110. The assay is described as follows: microbe, parasite or virus in culture. The following applies: Escherichia coli, W3110, 22 h, read-out: MIC E. coli W3110.
The next assay deals with E. coli W3110PA. The assay is described as follows: microbe, parasite or virus in culture. The following applies: Escherichia coli, W3110PA, 22 h, read-out: MIC E. coli W3110PA.
The next assay deals with E. coli W3110RL. As to the kind of experiment: microbe, parasite or virus in culture. As to conditions: Escherichia coli, W3110RL, 22 h, read-out: MIC E. coli W3110RL.

Turning to `Nc1ccc(C#CC#Cc2ccc(C(=O)N[C@H](C(=O)NO)[C@H](O)c3ccc(O)cc3)cc2)cc1` [CPD-049, 4-((4-aminophenyl)buta-1,3-diynyl)-N-((1R,2S)-1-hydroxy-3-(hydroxyamino)-1-(4-hydroxyphenyl)-3-oxopropan-2-yl)benzamide], the MIC is 11 to 50 µg/mL (≈ 24.2 to 110 µM) in the assay on P. aeruginosa (PAO1), 1 to 10 µg/mL (≈ 2.2 to 22 µM) in the assay on E. coli W3110, 51 to 100 µg/mL (≈ 112 to 220 µM) in the assay on E. coli W3110PA and 51 to 100 µg/mL (≈ 112 to 220 µM) with E. coli W3110RL.

Consider `Nc1ccc(C#CC#Cc2ccc(C(=O)N[C@H](C(=O)NO)[C@@H](O)c3ccc(O)cc3)cc2)cc1` [CPD-050, 4-((4-aminophenyl)buta-1,3-diynyl)-N-((1S,2S)-1-hydroxy-3-(hydroxyamino)-1-(4-hydroxyphenyl)-3-oxopropan-2-yl)benzamide], for which the MIC is 1 to 10 µg/mL (≈ 2.2 to 22 µM) with P. aeruginosa (PAO1), below 1 µg/mL with E. coli W3110, below 1 µg/mL in the assay on E. coli W3110PA and 11 to 50 µg/mL (≈ 24.2 to 110 µM) in the assay on E. coli W3110RL.

As for `C[C@@](O)(c1ccc(O)cc1)C(NC(=O)c1ccc(C#CC#Cc2ccc(N)cc2)cc1)C(=O)NO` (stereo partly drawn) [CPD-052, 4-((4-aminophenyl)buta-1,3-diynyl)-N-((3R)-3-hydroxy-1-(hydroxyamino)-3-(4-hydroxyphenyl)-1-oxobutan-2-yl)benzamide], the MIC in the assay with P. aeruginosa (PAO1) is 1 to 10 µg/mL (≈ 2.13 to 21.3 µM); in the assay on E. coli W3110, below 1 µg/mL; in the assay with E. coli W3110PA it was 1 to 10 µg/mL (≈ 2.13 to 21.3 µM); in the assay on E. coli W3110RL it was 51 to 100 µg/mL (≈ 109 to 213 µM).

Regarding `C[C@H](O)[C@H](NC(=O)c1ccc(C#CC#Cc2ccc(N)cc2)cc1)C(=O)NO` [CPD-053, (2S,3S)-2-{4′-[(4″-aminophenyl)buta-1′,3′-diynyl]benzamido}-1,3-dihydroxybutanamide], the MIC in the assay on P. aeruginosa (PAO1) is below 1 µg/mL; in the assay on E. coli W3110, below 1 µg/mL; with E. coli W3110PA, below 1 µg/mL; with E. coli W3110RL it was 51 to 100 µg/mL (≈ 135 to 265 µM).

In the case of `C[C@@H](O)[C@@H](NC(=O)c1ccc(C#CC#Cc2ccc(N)cc2)cc1)C(=O)NO` [CPD-054, (2R,3R)-2-{4′-[(4″-aminophenyl)buta-1′,3′-diynyl]benzamido}-1,3-dihydroxybutanamide], the MIC was 11 to 50 µg/mL (≈ 29.1 to 132 µM) in the assay on P. aeruginosa (PAO1), 1 to 10 µg/mL (≈ 2.65 to 26.5 µM) in the assay with E. coli W3110, 11 to 50 µg/mL (≈ 29.1 to 132 µM) with E. coli W3110PA and 51 to 100 µg/mL (≈ 135 to 265 µM) with E. coli W3110RL.

For the molecule `C[C@H](O)[C@@H](NC(=O)c1ccc(C#CC#Cc2ccc(N)cc2)cc1)C(=O)NO` [CPD-055, (2R,3S)-2-{4′-[(4″-aminophenyl)buta-1′,3′-diynyl]benzamido}-1,3-dihydroxybutanamide], the MIC with P. aeruginosa (PAO1) was 11 to 50 µg/mL (≈ 29.1 to 132 µM); in the assay on E. coli W3110, 1 to 10 µg/mL (≈ 2.65 to 26.5 µM); in the assay on E. coli W3110PA, 11 to 50 µg/mL (≈ 29.1 to 132 µM); in the assay on E. coli W3110RL, 51 to 100 µg/mL (≈ 135 to 265 µM).

As to `Nc1ccc(C#CC#Cc2ccc(C(=O)N[C@H](C(=O)NO)[C@H](O)C(F)F)cc2)cc1` [CPD-056, 4-((4-aminophenyl)buta-1,3-diynyl)-N-((2S,3S)-4,4-difluoro-3-hydroxy-1-(hydroxyamino)-1-oxobutan-2-yl)benzamide], the MIC in the assay on P. aeruginosa (PAO1) was below 1 µg/mL; in the assay with E. coli W3110, below 1 µg/mL; in the assay on E. coli W3110PA it was below 1 µg/mL; with E. coli W3110RL, 1 to 10 µg/mL (≈ 2.42 to 24.2 µM).

As to `Nc1ccc(C#CC#Cc2ccc(C(=O)N[C@H](C(=O)NO)[C@H](O)C(F)(F)F)cc2)cc1` [CPD-057, 4-((4-aminophenyl)buta-1,3-diynyl)-N-((2S,3S)-4,4,4-trifluoro-3-hydroxy-1-(hydroxyamino)-1-oxobutan-2-yl)benzamide], the MIC with P. aeruginosa (PAO1) is below 1 µg/mL; in the assay on E. coli W3110, below 1 µg/mL; in the assay with E. coli W3110PA it was below 1 µg/mL; in the assay on E. coli W3110RL, 51 to 100 µg/mL (≈ 118 to 232 µM).

As for `C[C@@H](O)[C@H](NC(=O)c1ccc(C#CCOc2ccc(N)cc2)cc1)C(=O)NO` [CPD-059, 4-(3-(4-aminophenoxy)prop-1-ynyl)-N-((2S,3R)-3-hydroxy-1-(hydroxyamino)-1-oxobutan-2-yl)benzamide], the MIC in the assay on P. aeruginosa (PAO1) was in the range of 11 to 50 µg/mL (≈ 28.7 to 130 µM); with E. coli W3110, 1 to 10 µg/mL (≈ 2.61 to 26.1 µM); in the assay with E. coli W3110PA, 11 to 50 µg/mL (≈ 28.7 to 130 µM); in the assay with E. coli W3110RL it was 51 to 100 µg/mL (≈ 133 to 261 µM).

In the case of `Nc1ccc(OCC#Cc2ccc(C(=O)N[C@@H]3CCN(O)C3=O)cc2)cc1` [CPD-060, (R)-4-(3-(4-aminophenoxy)prop-1-ynyl)-N-(1-hydroxy-2-oxopyrrolidin-3-yl)benzamide], the MIC with P. aeruginosa (PAO1) lay within 11 to 50 µg/mL (≈ 30.1 to 137 µM); in the assay with E. coli W3110, 1 to 10 µg/mL (≈ 2.74 to 27.4 µM); with E. coli W3110PA, 11 to 50 µg/mL (≈ 30.1 to 137 µM); with E. coli W3110RL it was 51 to 100 µg/mL (≈ 140 to 274 µM).
